According to PMC2947157, “Development of a FLIPR Assay for the Simultaneous Identification of MrgD Agonists and Antagonists from a Single Screen” (Journal of Biomedicine and Biotechnology, 2010):
“And” between values parts separate entries of the source, which are not always exact repeats. Equal entries are not always repeated. Structures can show the parent of a compound that is named as a salt. Where two headings read alike, the source gives them in different places.

What was measured:
MrgD [1] = target: T1, MrgD (Homo sapiens, UniProt Q8TDS7); assay: Calcium mobilization FLIPR assay, agonist dose-response, CHO-DUKX cells expressing human MrgD; format: cell-based; conditions: for FLIPR response in human MrgD expressing cells: result in words
T1 construct: expressed in transfected cells
Experimental: (§1) A Kozak sequence and HA epitope tag were incorporated in the forward primer. […] A Kozak sequence and c-Myc epitope tag were incorporated in the forward primer. The resulting PCR products were cloned into the Xba I and EcoR I sites of pHTOP vector, a proprietary derivative of the pED expression vector [12]. For transfection, CHO-DUKX-A2 cells (DHFR(−) CHO cell line stably expressing the tetracycline transactivator) were grown in M alpha media containing 1% MEM nonessential amino acids solution (NEAA), 10% fetal bovine serum (FBS), and 500 ug/mL G418. MrgDpHTOP was transfected using Lipofectamine Plus reagents as per the manufacturer's recommendations. Antibiotic selection was performed using Dulbecco's modified Eagle medium supplemented with 10% FBS, 100 units/mL penicillin, 100 μg/mL streptomycin, 1% NEAA, and 20 nM methotrexate (Calbiochem, San Diego, CA). Cell lines were maintained at 37°C in a humidified atmosphere containing 5% CO2. Surviving colonies were expanded further and used for functional analysis. Clones of human MrgD expressing cell lines were evaluated initially for MrgD transcript level by Taqman analysis and normalized against the house-keeping gene GAPDH (Glyceraldehyde-3-phosphate dehydrogenase).
(§2) CHO-DUKX-A2 cells stably expressing human or rat MrgD were plated in 384-well tissue-culture-treated polystyrene black clear flat-bottom assay plates (BD Biosciences, San Jose, CA). Thirty μL of 8 × 10^5 cells/mL (24,000 cells/well) were plated and maintained for ~24 hrs at 37°C in a humidified atmosphere containing 5% CO2. After removal of the growth medium, cells were incubated with 30 μL of Ca3 dye (Molecular Devices Corporation, Sunnyvale, CA) containing 2.5 mM freshly prepared probenecid made according to the manufacturer's protocol. Agonists were prepared in 1x Hanks balanced salt solution (HBSS) buffer with 20 mM HEPES buffer. Changes in intracellular Ca^2+ were monitored using the Fluorometric Imaging Plate Reader (FLIPR; Molecular Devices, Sunnyvale, CA). For the double addition protocols, compounds were added by the FLIPR, and readings were taken for 3 min, followed by the addition of the agonist. The change in intracellular calcium [Ca^2+] was monitored as an increase in relative fluorescence units (RFUS), and the difference between maximum and minimum RFU was used to calculate dose-response curves. Data analysis was performed using PRISM 4.0 (GraphPAD Software Inc.). For the LOPAC screen, cells were plated in 96-well tissue-culture-treated polystyrene black clear flat-bottom assay plates (BD Biosciences, San Jose, CA). One hundred μL of cells (40,000 cells/well) were plated and maintained under the same conditions as above. For the assay, growth medium was replaced with 90 μL of Ca3 dye containing 2.5 mM freshly prepared probenecid. The FLIPR added 10 μL of beta-alanine at 100 μM final concentration. For antagonist dose-response assays, the cells were incubated with the compounds for ~30 minutes after which beta-alanine at a final concentration of 10 μM was added by the FLIPR.
Target sequence in this assay (Q8TDS7 whole entry): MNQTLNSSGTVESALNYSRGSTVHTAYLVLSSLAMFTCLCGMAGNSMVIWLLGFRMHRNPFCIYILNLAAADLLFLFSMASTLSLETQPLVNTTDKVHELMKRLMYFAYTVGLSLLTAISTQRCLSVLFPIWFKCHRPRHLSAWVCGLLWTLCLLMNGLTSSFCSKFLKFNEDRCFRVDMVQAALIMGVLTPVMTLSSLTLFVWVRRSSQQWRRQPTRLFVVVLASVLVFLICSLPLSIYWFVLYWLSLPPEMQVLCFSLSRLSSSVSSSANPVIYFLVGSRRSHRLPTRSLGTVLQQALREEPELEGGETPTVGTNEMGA

rat MrgD = target: T2, rat MrgD (Rattus norvegicus, UniProt Q7TN41); assay: Calcium mobilization FLIPR assay, agonist dose-response, CHO-DUKX cells expressing rat MrgD; format: cell-based; conditions: for EC50 / EC50 Rat MrgD: CHO-DUKX cells, FLIPR, Table 1: mean ± SD from 2–6 independent experiments; for FLIPR response in rat MrgD expressing cells: result in words
T2 construct: expressed in transfected cells
T2 sequence (Q7TN41 1-319): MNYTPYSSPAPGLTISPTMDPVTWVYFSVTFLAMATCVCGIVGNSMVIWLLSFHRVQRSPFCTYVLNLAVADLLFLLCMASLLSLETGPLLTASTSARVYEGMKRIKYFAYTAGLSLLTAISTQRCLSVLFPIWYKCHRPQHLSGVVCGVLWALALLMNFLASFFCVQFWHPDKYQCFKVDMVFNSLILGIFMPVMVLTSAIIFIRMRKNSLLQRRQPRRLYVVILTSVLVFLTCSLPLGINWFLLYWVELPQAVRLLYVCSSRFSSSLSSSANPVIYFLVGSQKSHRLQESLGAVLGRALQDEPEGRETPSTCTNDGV
Experimental: as §1, §2

[2] = system: MrgD expressing cell lines; conditions: read-out: EC50 for MrgD expressing cell lines, cited from earlier work
[3] = system: beta-alanine-induced calcium mobilization in MrgD CHO-DUKX cells; assay: Evaluation of Gi and Gq coupling of MrgD by FLIPR response to beta-alanine; format: cell-based; conditions: 100 μM beta-alanine
Experimental: MrgD is known to couple through both Gi and Gq. To further explore the utility of the cell line for a potential secondary assay measuring cAMP, we investigated whether the FLIPR assay was capable of distinguishing the extent of Gi and Gq coupling of MrgD. MrgD CHO-DUKX cells were treated with either the Gi inhibitor pertussis toxin (PTX) overnight or the phospholipase C (PLC) inhibitor U-73122 for 30 or 60 minutes and then evaluated for their responses to beta-alanine.
Figure 2 Evaluation of Gq (Figure 2(a)) and Gi (Figure 2(b)) coupling of MrgD receptors assessed using FLIPR response. MrgD cells were pretreated with the PLC inhibitor (U-73122 at 2 μM for 30 or 60 minutes) or pertussis toxin (100 ng overnight) for blocking Gi coupling to MrgD. FLIPR responses were evaluated by the addition of 100 μM beta-alanine.

MrgD [4] = target: T1, MrgD; assay: FLIPR antagonist dose-response assay against beta-alanine; format: cell-based; conditions: beta-alanine 10 μM, ~30 min preincubation
Experimental: as §2
Target sequence in this assay (Q8TDS7 whole entry, species assumed): as the sequence (Q8TDS7 whole entry) above

MrgD [5] = target: T1, MrgD; assay: Dual-addition FLIPR LOPAC library screen (test compound, then beta-alanine); format: cell-based; conditions: dual-addition format; for Calcium mobilization following addition of beta-alanine (addition 2) in LOPAC screen: beta-alanine 100 μM, Figure 4(b)
Experimental: as §2
Target sequence in this assay (Q8TDS7 whole entry, species assumed): as the sequence (Q8TDS7 whole entry) above
We developed an assay that could allow both agonists and antagonists to be distinguished in a single screen. Employing such an assay format should enable the identification of tool compounds that may help in elucidating the role of MrgD in pain. The diagram in Figure 3 describes the dual-addition assay format where addition of the test compound (addition 1) is followed by the addition of beta-alanine (addition 2). A FLIPR response immediately upon the addition of a test compound would indicate its activity as an agonist. On the other hand, if the compound behaves as an antagonist, not only will there be a lack of response to this test compound, it will also attenuate the effects of the subsequent addition of beta-alanine. In the event of no receptor engagement by the test compound, a normal agonist response will be observed to beta-alanine. We validated this assay format, which was robust and consistent with a Z′ factor greater than 0.7.
Figure 3 Assay format for the identification of an agonist and antagonist from a single screen. Test compound is added first followed by a second addition of beta-alanine. An agonist will induce a FLIPR response immediately upon the addition of a test compound. An antagonist will cause a pharmacological blockade of the MrgD receptor resulting in attenuation or complete lack of response to beta-alanine. In the event of no receptor engagement, a normal agonist response will be observed from beta-alanine addition.
Figure 4 Representative FLIPR traces obtained from LOPAC screen. Compounds from the LOPAC library were applied followed by the addition of beta-alanine. […]

[6] = CHO-DUKX cells, FLIPR, Table 1: mean ± SD from 2–6 independent experiments, read-out: EC50 Human MrgD
[7] = unit inferred, read-out: IC50 as MrgD antagonist (dose response analysis)
[8] = HA 966 racemate and enantiomers, species not stated at place, racemate value equals human MrgD value of Table 2, read-out: EC50 as MrgD agonist (Figure 5(a))
[9] = CHO-DUKX cells, FLIPR, Table 1: mean ± SD from 2–6 independent experiments

## NCCC(=O)O [Beta-alanine]
MrgD [1]; [6]
  EC50: 1 to 4 µM and 3.76 µM
Rat MrgD
  EC50: 1 to 4 µM and 3.77 µM
[2]; ref 9
  EC50: 15 ± 1 µM
[2]; ref 11
  EC50: 8.6 µM

## pertussis toxin [PTX]
[3]; pertussis toxin 100 ng overnight
  Reduction in calcium mobilization: ~50%

## CCCN1CCc2cccc3c2[C@H]1Cc1ccc(O)c(O)c1-3.Cl [R(−)-Propylnorapomorphine hydrochloride]
MrgD [4]; [7]
  IC50: 1.46 µM
MrgD [5]
  Calcium mobilization following addition of beta-alanine (addition 2) in LOPAC screen: attenuation or complete absence of calcium mobilization

## NCC(=O)O [Glycine]
MrgD [1]; [6]
  EC50: > 100 µM
MrgD [1]
  FLIPR response in human MrgD expressing cells: not
Rat MrgD
  EC50: > 100 µM
  FLIPR response in rat MrgD expressing cells: not

## CN(C)CCCN1c2ccccc2Sc2ccc(Cl)cc21 [chlorpromazine hydrochloride]
MrgD [4]; read-out: IC50 as MrgD antagonist (Figure 5 legend)
  IC50: 2.7 µM
MrgD [5]
  Calcium mobilization following addition of beta-alanine (addition 2) in LOPAC screen: attenuation or complete absence of calcium mobilization

## NC1CCN(O)C1=O (single isomer, unassigned; (+)) [(+) HA 966]
MrgD [1]; [8]
  EC50: 106 µM

## NC1CCN(O)C1=O (racemic) [(±) HA 966]
MrgD [1]; [6]
  EC50: 11 µM
Rat MrgD
  EC50: 13.2 µM

## CN[C@@H]1C[C@@H](c2ccc(Cl)c(Cl)c2)c2ccccc21 [indatraline hydrochloride]
MrgD [5]
  Calcium mobilization following addition of beta-alanine (addition 2) in LOPAC screen: attenuation or complete absence of calcium mobilization

## NCC1(CC(=O)O)CCCCC1 [Gabapentin]
MrgD [1]; [9]
  EC50 Human MrgD: No effect
MrgD [1]
  FLIPR response in human MrgD expressing cells: failed to induce a response
Rat MrgD
  EC50 Rat MrgD: No effect
  FLIPR response in rat MrgD expressing cells: failed to induce a response

## 5, 7 dihydroxytryptamine creatinine sulfate
MrgD [1]; [6]
  EC50: 5.2 µM
Rat MrgD
  EC50: 9.7 µM

## CCCn1c(=O)c2[nH]c(-c3ccc(OCC(=O)NCCN)cc3)nc2n(CCC)c1=O [Xanthine amine congener]
MrgD [1]; [6]
  EC50: > 100 µM
Rat MrgD
  EC50: 48.3 µM

## CC(C)C[C@H](CN)CC(=O)O [Pregabalin]
MrgD [1]; [9]
  EC50 Human MrgD: No effect
MrgD [1]
  FLIPR response in human MrgD expressing cells: failed to induce a response
Rat MrgD
  EC50 Rat MrgD: No effect
  FLIPR response in rat MrgD expressing cells: failed to induce a response

## NC1CCN(O)C1=O (single isomer, unassigned; (-)) [(−) HA 966]
MrgD [1]; [8]
  EC50: 5.5 µM

## COc1ccc2c(c1)CC[C@@H]1[C@@H]2CC[C@]2(C)[C@@H](NCCCCCCN3C(=O)C=CC3=O)CC[C@@H]12 [U-73122]
[3]; U-73122 at 2 μM for 30 or 60 minutes
  Effect on FLIPR response to beta-alanine: completely blocked

## CSc1ccc2c(c1)N(CCC1CCCCN1C)c1ccccc1S2 (centres unmarked) [thioridazine hydrochloride]
MrgD [4]; [7]
  IC50: 1.06 µM
MrgD [5]
  Calcium mobilization following addition of beta-alanine (addition 2) in LOPAC screen: attenuation or complete absence of calcium mobilization

## NCCCC(=O)O [GABA, gamma-aminobutyric acid]
MrgD [1]; [6]
  EC50: 53 ± 26 µM
MrgD [1]
  FLIPR response in human MrgD expressing cells: weakly stimulated
MrgD [5]; Figure 4(a)
  Response to test compound (addition 1) in LOPAC screen: evoked a response
Rat MrgD
  EC50: 49.8 ± 1.5 µM
  FLIPR response in rat MrgD expressing cells: weakly stimulated
